Structures are written as SMILES.

The target in the test is T1, SIRT1 (Homo sapiens, UniProt Q96EB6).
T1 sequence (Q96EB6 1-747): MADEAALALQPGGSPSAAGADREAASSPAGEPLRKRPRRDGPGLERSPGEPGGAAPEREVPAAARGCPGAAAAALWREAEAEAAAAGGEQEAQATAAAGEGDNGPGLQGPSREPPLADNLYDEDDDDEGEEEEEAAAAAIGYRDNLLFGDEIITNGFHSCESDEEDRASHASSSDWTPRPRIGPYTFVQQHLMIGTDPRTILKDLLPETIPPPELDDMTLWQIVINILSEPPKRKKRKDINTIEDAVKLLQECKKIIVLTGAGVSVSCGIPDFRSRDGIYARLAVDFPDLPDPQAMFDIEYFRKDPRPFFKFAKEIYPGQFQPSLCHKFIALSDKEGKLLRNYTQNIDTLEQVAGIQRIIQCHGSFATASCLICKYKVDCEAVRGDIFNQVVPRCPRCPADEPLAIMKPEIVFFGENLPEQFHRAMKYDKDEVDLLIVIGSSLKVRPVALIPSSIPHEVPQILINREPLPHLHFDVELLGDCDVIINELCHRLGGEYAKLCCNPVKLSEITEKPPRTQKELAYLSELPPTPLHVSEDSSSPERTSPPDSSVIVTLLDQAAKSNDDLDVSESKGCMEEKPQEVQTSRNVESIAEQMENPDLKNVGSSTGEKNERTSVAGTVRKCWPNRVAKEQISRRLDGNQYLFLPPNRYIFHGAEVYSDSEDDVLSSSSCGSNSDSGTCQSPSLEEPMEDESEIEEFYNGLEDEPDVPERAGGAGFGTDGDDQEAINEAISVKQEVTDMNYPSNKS
The test is described as follows: Trp mass spectrometry assay (SIRT1 activation). Type of test: biochemical. The conditions noted are these: Trp mass spectrometry assay; for Tryp AVG EC1.5 (μM): EC1.5 = concentration giving 150% activation of SIRT1; for Emax: percent maximum fold activation of SIRT1, read-out: Tryp % Fold Act. In outline: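 N-His-tagged SIRT1 (10 nM), expressed in E. coli, was incubated with 0.5 μM Ac-RHKK(Ac)W-NH2 peptide and 120 μM NAD+ for 25 min at 25 °C in HEPES pH 7.5 with […]. The reaction was stopped with formic acid and O-acetyl-ADP-ribose or deacetylated peptide was quantified by mass spectrometry. Results are given as EC1.5 and percent maximal activation relative to DMSO control.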

Consider `O=C(Nc1ccc(N2CCCCC2)cc1)N1c2nc(-c3cccc(C(F)(F)F)c3)ccc2N2CC[C@H]1C2` [Example 628], for which the “Tryp AVG EC1.5 (μM)” value is listed as “B (EC1.5 1-25 μM)” and the Emax is no less than 150%.

As for `O=C(Nc1cccc(CN2CCOCC2)c1)N1c2nc(-c3cccc(C(F)(F)F)c3)ccc2N2CC[C@H]1C2` [Example 629], the “Tryp AVG EC1.5 (μM)” value is recorded as “A (EC1.5<1 μM)” and the Emax is no less than 150%.

Turning to `O=C(Nc1cncc(F)c1)N1c2nc(-c3cccc(C(F)(F)F)c3)ccc2N2C[C@@H](O)[C@H]1C2` [Example 630], the “Tryp AVG EC1.5 (μM)” value is on record as “A (EC1.5<1 μM)” and the Emax is no less than 150%.

As for `O=C(Nc1cccnn1)N1c2nc(-c3cccc(C(F)(F)F)c3)ccc2N2C[C@@H](O)[C@H]1C2` [Example 631], the “Tryp AVG EC1.5 (μM)” value is listed as “B (EC1.5 1-25 μM)” and the Emax is no less than 150%.

Turning to `Cc1nccn1CCCNC(=O)N1c2nc(-c3cccc(C(F)(F)F)c3)ccc2N2CC[C@H]1C2` [Example 632], the “Tryp AVG EC1.5 (μM)” value is “C (EC1.5>25 μM)” and the Emax is no less than 150%.

In the case of `O=C(NCCCc1ccncc1)N1c2nc(-c3cccc(C(F)(F)F)c3)ccc2N2CC[C@H]1C2` [Example 633], the “Tryp AVG EC1.5 (μM)” value is reported as “B (EC1.5 1-25 μM)” and the Emax was no less than 150%.

Take `CC(=O)O[C@H]1CN2C[C@H]1N(C(=O)Nc1ccccn1)c1nc(-c3cccc(C(F)(F)F)c3)ccc12` [Example 634]: the “Tryp AVG EC1.5 (μM)” value is “C (EC1.5>25 μM)” and the Emax is less than 150%.

Regarding `CC(=O)N1CCC(c2cccc(NC(=O)N3c4nc(-c5cccc(C(F)(F)F)c5)ccc4N4CC[C@H]3C4)c2)C1` (some centres unmarked) [Example 635], the “Tryp AVG EC1.5 (μM)” value is “A (EC1.5<1 μM)” and the Emax was no less than 150%.

Regarding `CCC(=O)N1CCC(c2cccc(NC(=O)N3c4nc(-c5cccc(C(F)(F)F)c5)ccc4N4CC[C@H]3C4)c2)C1` (some centres unmarked) [Example 636], the “Tryp AVG EC1.5 (μM)” value is “A (EC1.5<1 μM)” and the Emax is no less than 150%.

Turning to `O=C(C1CC1)N1CCC(c2cccc(NC(=O)N3c4nc(-c5cccc(C(F)(F)F)c5)ccc4N4CC[C@H]3C4)c2)C1` (some centres unmarked) [Example 637], the “Tryp AVG EC1.5 (μM)” value is given as “A (EC1.5<1 μM)” and the Emax was no less than 150%.

`CC(C)(C)OC(=O)NCc1cnnn1-c1cccc(NC(=O)N2c3nc(-c4cccc(C(F)(F)F)c4)ccc3N3CC[C@H]2C3)c1` [Example 638]: the “Tryp AVG EC1.5 (μM)” value was “A (EC1.5<1 μM)” and the Emax was no less than 150%.

On to `NCCCCCC(=O)NCc1cn(-c2cccc(NC(=O)N3c4nc(-c5cccc(C(F)(F)F)c5)ccc4N4CC[C@H]3C4)c2)nn1` [Example 639], for which the “Tryp AVG EC1.5 (μM)” value was “A (EC1.5<1 μM)” and the Emax was no less than 150%.

Turning to `NCc1cnnn1-c1cccc(NC(=O)N2c3nc(-c4cccc(C(F)(F)F)c4)ccc3N3CC[C@H]2C3)c1` [Example 640], the “Tryp AVG EC1.5 (μM)” value was “A (EC1.5<1 μM)” and the Emax was no less than 150%.

In the case of `O=C(Nc1ccc(Oc2ccccc2)cc1)N1c2nc(-c3cccc(C(F)(F)F)c3)ccc2N2CC[C@H]1C2` [Example 641], the “Tryp AVG EC1.5 (μM)” value was “C (EC1.5>25 μM)” and the Emax was less than 150%.

As for `CS(=O)(=O)Nc1cccc(NC(=O)N2c3nc(-c4cccc(C(F)(F)F)c4)ccc3N3CC[C@H]2C3)c1` [Example 642], the “Tryp AVG EC1.5 (μM)” value is on record as “A (EC1.5<1 μM)” and the Emax is no less than 150%.

As for `NS(=O)(=O)c1ccc(NC(=O)N2c3nc(-c4cccc(C(F)(F)F)c4)ccc3N3CC[C@H]2C3)cc1` [Example 643], the “Tryp AVG EC1.5 (μM)” value is reported as “A (EC1.5<1 μM)” and the Emax is no less than 150%.

As for `COc1cc(NC(=O)N2c3nc(-c4cccc(C(F)(F)F)c4)ccc3N3C[C@@H](O)[C@H]2C3)ncn1` [Example 644], the “Tryp AVG EC1.5 (μM)” value was “B (EC1.5 1-25 μM)” and the Emax was no less than 150%.

Turning to `O=C(Nc1cnccn1)N1c2nc(-c3cccc(C(F)(F)F)c3)ccc2N2C[C@@H](O)[C@H]1C2` [Example 645], the “Tryp AVG EC1.5 (μM)” value is given as “A (EC1.5<1 μM)” and the Emax is no less than 150%.

Consider `O=C(Nc1nncs1)N1c2nc(-c3cccc(C(F)(F)F)c3)ccc2N2CC[C@H]1C2` [Example 646], for which the “Tryp AVG EC1.5 (μM)” value was “A (EC1.5<1 μM)” and the Emax is no less than 150%.

On to `CCc1nnc(NC(=O)N2c3nc(-c4cccc(C(F)(F)F)c4)ccc3N3CC[C@H]2C3)s1` [Example 647], for which the “Tryp AVG EC1.5 (μM)” value is “A (EC1.5<1 μM)” and the Emax is no less than 150%.

With `O=C(Nc1nnc(-c2ccccc2)s1)N1c2nc(-c3cccc(C(F)(F)F)c3)ccc2N2CC[C@H]1C2` [Example 648], the “Tryp AVG EC1.5 (μM)” value is recorded as “A (EC1.5<1 μM)” and the Emax was no less than 150%.

As to `CC(C)(C)c1nnc(NC(=O)N2c3nc(-c4cccc(C(F)(F)F)c4)ccc3N3CC[C@H]2C3)s1` [Example 649], the “Tryp AVG EC1.5 (μM)” value is reported as “B (EC1.5 1-25 μM)” and the Emax was no less than 150%.

In the case of `O=C(Nc1nnc(C(F)(F)F)s1)N1c2nc(-c3cccc(C(F)(F)F)c3)ccc2N2CC[C@H]1C2` [Example 650], the “Tryp AVG EC1.5 (μM)” value was “C (EC1.5>25 μM)” and the Emax was less than 150%.

For the compound `O=C(Nc1nnc(-c2cccnc2)s1)N1c2nc(-c3cccc(C(F)(F)F)c3)ccc2N2CC[C@H]1C2` [Example 651], the “Tryp AVG EC1.5 (μM)” value was “A (EC1.5<1 μM)” and the Emax was no less than 150%.

Turning to `O=C(Nc1cccc(Br)n1)N1c2nc(-c3cccc(C(F)(F)F)c3)ccc2N2CC[C@H]1C2` [Example 652], the “Tryp AVG EC1.5 (μM)” value is given as “A (EC1.5<1 μM)” and the Emax is no less than 150%.

For the compound `O=C(Nc1cccc(-c2ccsc2)n1)N1c2nc(-c3cccc(C(F)(F)F)c3)ccc2N2CC[C@H]1C2` [Example 653], the “Tryp AVG EC1.5 (μM)” value was “A (EC1.5<1 μM)” and the Emax is no less than 150%.

With `O=C(Nc1cccc(-c2ccoc2)n1)N1c2nc(-c3cccc(C(F)(F)F)c3)ccc2N2CC[C@H]1C2` [Example 654], the “Tryp AVG EC1.5 (μM)” value is “A (EC1.5<1 μM)” and the Emax was no less than 150%.

As for `O=C(Nc1cccc(-c2cccnc2)n1)N1c2nc(-c3cccc(C(F)(F)F)c3)ccc2N2CC[C@H]1C2` [Example 655], the “Tryp AVG EC1.5 (μM)” value is “A (EC1.5<1 μM)” and the Emax was no less than 150%.

In the case of `CCCn1cc(-c2cccc(NC(=O)N3c4nc(-c5cccc(C(F)(F)F)c5)ccc4N4CC[C@H]3C4)n2)cn1` [Example 656], the “Tryp AVG EC1.5 (μM)” value is “A (EC1.5<1 μM)” and the Emax is no less than 150%.

Take `Cc1noc(C)c1-c1cccc(NC(=O)N2c3nc(-c4cccc(C(F)(F)F)c4)ccc3N3CC[C@H]2C3)n1` [Example 657]: the “Tryp AVG EC1.5 (μM)” value is recorded as “A (EC1.5<1 μM)” and the Emax is no less than 150%.

As to `O=C(Nc1cccc(C2=CCOCC2)n1)N1c2nc(-c3cccc(C(F)(F)F)c3)ccc2N2CC[C@H]1C2` [Example 658], the “Tryp AVG EC1.5 (μM)” value is on record as “A (EC1.5<1 μM)” and the Emax was no less than 150%.

For the compound `NC(=O)c1ccc(NC(=O)N2c3nc(-c4cccc(C(F)(F)F)c4)ccc3N3CC[C@H]2C3)cc1` [Example 659], the “Tryp AVG EC1.5 (μM)” value was “A (EC1.5<1 μM)” and the Emax is no less than 150%.

As for `O=C(Nc1cccc(-c2cccnc2)c1)N1c2nc(-c3cccc(C(F)(F)F)c3)ccc2N2CC[C@H]1C2` [Example 660], the “Tryp AVG EC1.5 (μM)” value is on record as “A (EC1.5<1 μM)” and the Emax is no less than 150%.

On to `O=C(NCCn1ccnc1)N1c2nc(-c3cccc(C(F)(F)F)c3)ccc2N2CC[C@H]1C2` [Example 661], for which the “Tryp AVG EC1.5 (μM)” value is “C (EC1.5>25 μM)” and the Emax is no less than 150%.

The values are drawn from patent US9765075B2, “Substituted bridged urea analogs as sirtuin modulators” (GLAXOSMITHKLINE LLC, priority 2013, dated 2017).
